21 compounds from ChEMBL document CHEMBL1126346, “C-linked pyrazole biaryl tetrazoles as antagonists of angiotensin II” (1992) can be followed below.

The source made the active and inactive calls. The rule behind the calls is not given here.

For test [1], the target named is T1, Type-1 angiotensin II receptor (Oryctolagus cuniculus) (UniProt P34976).
T1 sequence (whole entry): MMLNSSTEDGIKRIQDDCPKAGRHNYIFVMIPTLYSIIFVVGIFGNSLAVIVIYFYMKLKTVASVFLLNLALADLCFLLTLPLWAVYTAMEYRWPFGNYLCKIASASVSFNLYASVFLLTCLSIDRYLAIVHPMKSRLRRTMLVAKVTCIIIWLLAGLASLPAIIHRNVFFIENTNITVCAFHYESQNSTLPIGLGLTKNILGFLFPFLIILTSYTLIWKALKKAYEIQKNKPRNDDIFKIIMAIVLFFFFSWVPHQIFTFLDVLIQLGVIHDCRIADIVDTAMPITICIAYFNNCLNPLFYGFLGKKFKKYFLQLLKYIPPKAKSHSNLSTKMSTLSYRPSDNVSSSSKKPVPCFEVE
Briefly: In vitro inhibition of ATII induced contractions of the isolated rabbit aorta.

For test [2], the species on record is Rattus norvegicus. The experiment in a line: Effect on diastolic blood pressure of hypertensive rats; Inactive. Type of test: functional, organism-based. Conditions: Artery.
In test [3] the test system is Rattus norvegicus. Briefly: Effect on diastolic blood pressure of hypertensive rats 5 hours following 1 mg/kg p.o. administration. It counts as functional, Artery. Conditions: route oral.
The subject of test [4] is Rattus norvegicus. The experiment in a line: Effect on diastolic blood pressure of hypertensive rats 1 hour following 1 mg/kg p.o. administration. Type of test: functional, Artery. Conditions: route oral.
Test [5] relates to Rattus norvegicus. Briefly: Effect on diastolic blood pressure of hypertensive rats 24 hours following 1 mg/kg p.o. administration. Type of test: functional, Artery. The settings on record: route oral.
In test [6] the test system is Rattus norvegicus. Briefly: Effect on diastolic blood pressure of hypertensive rats 48 hours following 1 mg/kg p.o. administration. It counts as functional, Artery. Conditions: route oral.
The test system of test [7] is Rattus norvegicus. The experiment in a line: Effect on diastolic blood pressure of hypertensive rats immediately following 1 mg/kg p.o. administration. Type of test: functional, Artery. Conditions: route oral.
Test [8] deals with Rattus norvegicus. Briefly: Effect on diastolic blood pressure of hypertensive rats 3 hours following 1 mg/kg p.o. administration. Type of test: functional, Artery. Conditions: route oral.
Test [9] has as its system Rattus norvegicus. Briefly: Effect on diastolic blood pressure of hypertensive rats 7 hours following 1 mg/kg p.o. administration. It counts as functional, Artery. Conditions: route oral.

A word on the pKB: it is the KB on a negative log10 scale, so that one unit is a factor of ten. In [1], `CCCCc1nn(C(C)C)c(C(=O)O)c1Cc1ccc(-c2ccccc2-c2nn[nH]n2)cc1` had a pKB of 10.

`CCCCc1nn(CC)c(CO)c1Cc1ccc(-c2ccccc2-c2nn[nH]n2)cc1` showed a pKB in [1] of 8.

`CCCCc1nn(CC)c(C(=O)NC)c1Cc1ccc(-c2ccccc2-c2nn[nH]n2)cc1`: in [1], the negative logarithm of the KB (pKB) worked out at 7.5.

`CCCCc1nn(CCC)c(C(=O)O)c1Cc1ccc(-c2ccccc2-c2nn[nH]n2)cc1` had a pKB in test [1] of 10.5.

In test [1], `CCCCc1c(Cc2ccc(-c3ccccc3-c3nn[nH]n3)cc2)c(C(=O)O)nn1CC(F)(F)F` registered a negative-log KB (pKB) of 7.7.

Take `CCCCc1nn(CC)c(C(=O)O)c1Cc1ccc(-c2ccccc2NS(=O)(=O)C(F)(F)F)cc1`: the pKB in [1] is 8.

Take `CCCCc1c(Cc2ccc(-c3ccccc3-c3nn[nH]n3)cc2)c(COC)nn1CC(F)(F)F`: the pKB in test [1] is 7.

Turning to `CCCCc1c(Cc2ccc(-c3ccccc3-c3nn[nH]n3)cc2)c(C(=O)O)nn1CCCC`, the pKB in test [1] worked out at 8.

On to `CCCCc1nn(CC)c(C(=O)OCC)c1Cc1ccc(-c2ccccc2-c2nn[nH]n2)cc1`, for which the pKB in [1] amounted to 8.

Take `CCCCc1nn(C2CCC2)c(C(=O)O)c1Cc1ccc(-c2ccccc2-c2nn[nH]n2)cc1`: the Blood pressure result in test [2] was “inactive”. In test [1], this compound returned a pKB of 10.9.

The compound `CCCCc1nn(CC)c(C(=O)O)c1Cc1ccc(-c2ccccc2-c2nn[nH]n2)cc1` came in with a negative logarithm of the KB (pKB) in test [1] of 9.8.

Consider `CCCCc1nn(CC(F)(F)F)c(COC)c1Cc1ccc(-c2ccccc2-c2nn[nH]n2)cc1`, for which the pKB in test [1] is 7.

In test [1], `CCCCc1n[nH]c(C(=O)O)c1Cc1ccc(-c2ccccc2-c2nn[nH]n2)cc1` gave a pKB of 8.8.

`CCCCc1nn(CC(F)(F)F)c(C(=O)O)c1Cc1ccc(-c2ccccc2-c2nn[nH]n2)cc1` came in with a pKB in [1] of 9.8.

Take `CCCCc1nn(CCCC)c(C(=O)O)c1Cc1ccc(-c2ccccc2-c2nn[nH]n2)cc1`: the pKB in test [1] was 10.

Take `CCCCc1nn(CC(C)(C)C)c(C(=O)O)c1Cc1ccc(-c2ccccc2-c2nn[nH]n2)cc1`: the pKB in test [1] stood at 10.6.

In the case of `CCCCc1c(Cc2ccc(-c3ccccc3-c3nn[nH]n3)cc2)c(C(=O)O)nn1C(C)C`, in [1], the pKB stood at 8.

`CCCCc1nn(CC(C)C)c(C(=O)O)c1Cc1ccc(-c2ccccc2-c2nn[nH]n2)cc1` returned a pKB in test [1] of 11.

Take `CCCCc1nn(CC2CC2)c(C(=O)O)c1Cc1ccc(-c2ccccc2-c2nn[nH]n2)cc1`: the Blood pressure is 95 mmHg in [3]; 145 mmHg in test [4]; 97 mmHg in test [5]; 130 mmHg in test [6]; 150 mmHg in [7]; 115 mmHg in test [8]. In addition, the Blood pressure in test [9] was 95 mmHg. In addition, the pKB in test [1] came to 10.5.

In test [1], `CCCCc1nn(CC)c(C(=O)O)c1Cc1ccc(-c2ccccc2C(=O)O)cc1` had a pKB of 8.

Compound `CCCCc1nn(C)c(C(=O)O)c1Cc1ccc(-c2ccccc2-c2nn[nH]n2)cc1` had a negative logarithm of the KB (pKB) in test [1] of 9.8.
